Assay results reported in ChEMBL document CHEMBL4507275, “Data for DCP probe BI-2545” (2021).

What was measured:
[1] = system: Tyrosine-protein kinase ABL1 (Homo sapiens), P00519 [T315I]; settings: Compound concentration 1000.0 nM
[2] = target: RAC-alpha serine/threonine-protein kinase (Homo sapiens) (UniProt P31749); settings: Compound concentration 1000.0 nM
[3] = target: Tyrosine-protein kinase receptor UFO (Homo sapiens) (UniProt P30530); settings: Compound concentration 1000.0 nM
[4] = target: Serine/threonine-protein kinase BRSK2 (Homo sapiens) (UniProt Q8IWQ3); settings: Compound concentration 1000.0 nM
[5] = target: Calcium/calmodulin-dependent protein kinase type 1D (Homo sapiens) (UniProt Q8IU85); settings: Compound concentration 1000.0 nM
[6] = target: Cyclin-dependent kinase-like 1 (Homo sapiens) (UniProt Q00532); settings: Compound concentration 1000.0 nM
[7] = target: Serine/threonine-protein kinase Chk1 (Homo sapiens) (UniProt O14757); settings: Compound concentration 1000.0 nM
[8] = target: Tyrosine-protein kinase CSK (Homo sapiens) (UniProt P41240); settings: Compound concentration 1000.0 nM
[9] = target: Serine/threonine-protein kinase DCLK1 (Homo sapiens) (UniProt O15075); settings: Compound concentration 1000.0 nM
[10] = target: Discoidin domain-containing receptor 2 (Homo sapiens) (UniProt Q16832); settings: Compound concentration 1000.0 nM
[11] = target: Mitogen-activated protein kinase 15 (Homo sapiens) (UniProt Q8TD08); settings: Compound concentration 1000.0 nM
[12] = target: Tyrosine-protein kinase FRK (Homo sapiens) (UniProt P42685); settings: Compound concentration 1000.0 nM
[13] = target: Tyrosine-protein kinase Fyn (Homo sapiens) (UniProt P06241); settings: Compound concentration 1000.0 nM
[14] = system: eIF-2-alpha kinase GCN2 (Homo sapiens), Q9P2K8 [S808G]; settings: Compound concentration 1000.0 nM
[15] = system: Mast/stem cell growth factor receptor Kit (Homo sapiens), P10721 [D816V]; settings: Compound concentration 1000.0 nM
[16] = target: Serine/threonine-protein kinase STK11 (Homo sapiens) (UniProt Q15831); settings: Compound concentration 1000.0 nM
[17] = target: Mitogen-activated protein kinase kinase kinase kinase 5 (Homo sapiens) (UniProt Q9Y4K4); settings: Compound concentration 1000.0 nM
[18] = target: Dual specificity mitogen-activated protein kinase kinase 1 (Homo sapiens) (UniProt Q02750); settings: Compound concentration 1000.0 nM
[19] = target: MAP kinase-interacting serine/threonine-protein kinase 1 (Homo sapiens) (UniProt Q9BUB5); settings: Compound concentration 1000.0 nM
[20] = target: MAP kinase-interacting serine/threonine-protein kinase 2 (Homo sapiens) (UniProt Q9HBH9); settings: Compound concentration 1000.0 nM
[21] = target: Serine/threonine-protein kinase NIM1 (Homo sapiens) (UniProt Q8IY84); settings: Compound concentration 1000.0 nM
[22] = target: Serine/threonine-protein kinase PAK 4 (Homo sapiens) (UniProt O96013); settings: Compound concentration 1000.0 nM
[23] = target: Cyclin-dependent kinase 17 (Homo sapiens) (UniProt Q00537); settings: Compound concentration 1000.0 nM
[24] = target: Calcium-dependent protein kinase 1 (Plasmodium falciparum) (UniProt P62344); settings: Compound concentration 1000.0 nM
[25] = target: Phosphatidylinositol 4,5-bisphosphate 3-kinase catalytic subunit gamma isoform (Homo sapiens) (UniProt P48736); settings: Compound concentration 1000.0 nM
[26] = target: Serine/threonine-protein kinase D3 (Homo sapiens) (UniProt O94806); settings: Compound concentration 1000.0 nM
[27] = target: RAF proto-oncogene serine/threonine-protein kinase (Homo sapiens) (UniProt P04049); settings: Compound concentration 1000.0 nM
[28] = target: Ribosomal protein S6 kinase alpha-4 (Homo sapiens) (UniProt O75676); settings: Compound concentration 1000.0 nM
[29] = target: Ribosomal protein S6 kinase alpha-3 (Homo sapiens) (UniProt P51812); settings: Compound concentration 1000.0 nM
[30] = target: Ribosomal protein S6 kinase alpha-2 (Homo sapiens) (UniProt Q15349); settings: Compound concentration 1000.0 nM
[31] = target: NUAK family SNF1-like kinase 2 (Homo sapiens) (UniProt Q9H093); settings: Compound concentration 1000.0 nM
[32] = target: NT-3 growth factor receptor (Homo sapiens) (UniProt Q16288); settings: Compound concentration 1000.0 nM
[33] = target: Testis-specific serine/threonine-protein kinase 3 (Homo sapiens) (UniProt Q96PN8); settings: Compound concentration 1000.0 nM
[34] = target: Vascular endothelial growth factor receptor 2 (Homo sapiens) (UniProt P35968); settings: Compound concentration 1000.0 nM
[35] = target: Serine/threonine-protein kinase 32B (Homo sapiens) (UniProt Q9NY57); settings: Compound concentration 1000.0 nM
[36] = target: 5-hydroxytryptamine receptor 1D (Homo sapiens) (UniProt P28221); settings: Compound concentration 10.0 uM
[37] = target: T1, 5-hydroxytryptamine receptor 3A (Homo sapiens) (UniProt P46098); settings: Compound concentration 10.0 uM
T1 sequence (whole entry): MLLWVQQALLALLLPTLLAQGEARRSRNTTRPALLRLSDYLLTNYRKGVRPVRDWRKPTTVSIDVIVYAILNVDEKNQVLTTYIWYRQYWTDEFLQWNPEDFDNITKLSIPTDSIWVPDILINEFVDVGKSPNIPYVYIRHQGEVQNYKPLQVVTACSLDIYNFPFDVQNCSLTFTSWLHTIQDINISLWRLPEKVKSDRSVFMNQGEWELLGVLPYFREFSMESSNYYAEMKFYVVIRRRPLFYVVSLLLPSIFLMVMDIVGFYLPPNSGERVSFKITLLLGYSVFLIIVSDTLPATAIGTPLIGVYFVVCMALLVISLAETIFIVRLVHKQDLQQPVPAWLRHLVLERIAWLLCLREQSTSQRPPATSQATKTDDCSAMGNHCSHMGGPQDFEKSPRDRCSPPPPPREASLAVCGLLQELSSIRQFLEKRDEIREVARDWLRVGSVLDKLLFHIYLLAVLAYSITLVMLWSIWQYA

[38] = target: 5-hydroxytryptamine receptor 7 (Homo sapiens) (UniProt P34969); settings: Compound concentration 10.0 uM

Serine/threonine-protein kinase D3 (Homo sapiens), sequence (O94806 whole entry): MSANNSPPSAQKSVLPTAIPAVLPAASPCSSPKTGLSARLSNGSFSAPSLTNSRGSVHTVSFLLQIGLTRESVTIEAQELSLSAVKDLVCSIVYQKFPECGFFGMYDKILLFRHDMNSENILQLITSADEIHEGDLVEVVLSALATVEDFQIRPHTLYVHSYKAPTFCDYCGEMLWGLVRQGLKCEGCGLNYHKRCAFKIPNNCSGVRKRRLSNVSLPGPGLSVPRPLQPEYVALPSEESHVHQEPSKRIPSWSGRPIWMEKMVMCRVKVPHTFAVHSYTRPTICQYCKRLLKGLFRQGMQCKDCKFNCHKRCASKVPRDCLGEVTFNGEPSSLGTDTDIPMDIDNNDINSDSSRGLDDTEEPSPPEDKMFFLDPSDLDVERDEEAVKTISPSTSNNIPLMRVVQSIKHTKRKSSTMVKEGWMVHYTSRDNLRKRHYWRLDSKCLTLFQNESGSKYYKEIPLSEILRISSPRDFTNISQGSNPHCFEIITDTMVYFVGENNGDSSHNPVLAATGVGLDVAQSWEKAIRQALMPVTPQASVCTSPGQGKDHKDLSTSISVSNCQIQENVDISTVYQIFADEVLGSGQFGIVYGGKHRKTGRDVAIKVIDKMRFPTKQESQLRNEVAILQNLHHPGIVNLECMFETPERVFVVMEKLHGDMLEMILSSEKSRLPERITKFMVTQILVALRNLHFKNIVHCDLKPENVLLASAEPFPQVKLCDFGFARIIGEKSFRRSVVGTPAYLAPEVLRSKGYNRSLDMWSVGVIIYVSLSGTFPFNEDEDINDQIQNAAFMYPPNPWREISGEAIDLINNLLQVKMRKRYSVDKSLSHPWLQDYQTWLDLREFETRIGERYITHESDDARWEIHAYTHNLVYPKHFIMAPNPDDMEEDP
Serine/threonine-protein kinase 32B (Homo sapiens), sequence (Q9NY57 whole entry): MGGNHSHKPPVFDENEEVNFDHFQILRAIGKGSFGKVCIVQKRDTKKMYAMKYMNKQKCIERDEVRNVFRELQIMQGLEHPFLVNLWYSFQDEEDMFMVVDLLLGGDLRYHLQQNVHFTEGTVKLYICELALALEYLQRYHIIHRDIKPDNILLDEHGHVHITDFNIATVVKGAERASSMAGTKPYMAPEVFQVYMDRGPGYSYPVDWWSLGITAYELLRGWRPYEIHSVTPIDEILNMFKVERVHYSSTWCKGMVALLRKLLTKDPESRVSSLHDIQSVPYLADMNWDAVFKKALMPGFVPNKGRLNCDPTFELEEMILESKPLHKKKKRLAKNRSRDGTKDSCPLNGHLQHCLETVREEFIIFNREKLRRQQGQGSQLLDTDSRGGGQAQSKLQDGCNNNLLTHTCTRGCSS
Serine/threonine-protein kinase PAK 4 (Homo sapiens), sequence (O96013 whole entry, looked up): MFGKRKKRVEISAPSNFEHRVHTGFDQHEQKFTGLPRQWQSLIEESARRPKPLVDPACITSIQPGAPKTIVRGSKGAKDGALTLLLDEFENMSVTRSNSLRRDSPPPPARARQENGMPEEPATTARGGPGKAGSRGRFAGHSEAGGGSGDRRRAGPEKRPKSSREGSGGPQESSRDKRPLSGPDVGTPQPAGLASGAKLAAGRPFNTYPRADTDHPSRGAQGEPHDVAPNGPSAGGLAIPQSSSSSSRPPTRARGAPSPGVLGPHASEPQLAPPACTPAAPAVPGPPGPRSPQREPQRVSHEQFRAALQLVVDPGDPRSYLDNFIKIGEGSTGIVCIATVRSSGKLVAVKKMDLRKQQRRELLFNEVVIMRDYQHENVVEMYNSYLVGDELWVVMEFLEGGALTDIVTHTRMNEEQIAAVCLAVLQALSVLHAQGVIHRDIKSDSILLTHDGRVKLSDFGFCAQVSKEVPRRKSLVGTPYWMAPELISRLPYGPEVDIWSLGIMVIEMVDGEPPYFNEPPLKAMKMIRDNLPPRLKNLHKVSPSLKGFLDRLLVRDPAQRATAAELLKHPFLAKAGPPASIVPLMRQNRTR
Calcium-dependent protein kinase 1 (Plasmodium falciparum), sequence (P62344 2-524 limits assumed): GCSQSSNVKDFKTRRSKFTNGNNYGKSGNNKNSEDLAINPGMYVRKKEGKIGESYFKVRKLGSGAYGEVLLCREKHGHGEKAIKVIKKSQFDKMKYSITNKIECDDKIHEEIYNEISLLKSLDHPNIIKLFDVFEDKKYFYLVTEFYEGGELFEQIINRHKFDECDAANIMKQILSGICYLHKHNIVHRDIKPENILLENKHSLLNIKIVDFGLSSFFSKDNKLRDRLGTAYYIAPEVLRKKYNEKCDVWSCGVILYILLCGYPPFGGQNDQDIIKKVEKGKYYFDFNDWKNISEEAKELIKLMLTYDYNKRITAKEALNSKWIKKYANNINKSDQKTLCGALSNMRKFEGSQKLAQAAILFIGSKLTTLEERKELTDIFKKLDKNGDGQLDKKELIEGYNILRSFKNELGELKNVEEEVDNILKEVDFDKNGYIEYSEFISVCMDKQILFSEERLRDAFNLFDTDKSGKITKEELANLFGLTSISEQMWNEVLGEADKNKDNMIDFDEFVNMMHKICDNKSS
Testis-specific serine/threonine-protein kinase 3 (Homo sapiens), sequence (Q96PN8 whole entry): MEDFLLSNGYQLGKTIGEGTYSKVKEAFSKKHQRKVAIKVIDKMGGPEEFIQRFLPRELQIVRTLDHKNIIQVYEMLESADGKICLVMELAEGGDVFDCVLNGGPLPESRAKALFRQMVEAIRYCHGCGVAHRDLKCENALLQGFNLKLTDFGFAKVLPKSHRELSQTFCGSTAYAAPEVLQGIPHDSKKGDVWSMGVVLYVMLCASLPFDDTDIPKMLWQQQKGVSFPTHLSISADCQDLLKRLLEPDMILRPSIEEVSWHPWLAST
Tyrosine-protein kinase CSK (Homo sapiens), sequence (P41240 2-450 limits assumed): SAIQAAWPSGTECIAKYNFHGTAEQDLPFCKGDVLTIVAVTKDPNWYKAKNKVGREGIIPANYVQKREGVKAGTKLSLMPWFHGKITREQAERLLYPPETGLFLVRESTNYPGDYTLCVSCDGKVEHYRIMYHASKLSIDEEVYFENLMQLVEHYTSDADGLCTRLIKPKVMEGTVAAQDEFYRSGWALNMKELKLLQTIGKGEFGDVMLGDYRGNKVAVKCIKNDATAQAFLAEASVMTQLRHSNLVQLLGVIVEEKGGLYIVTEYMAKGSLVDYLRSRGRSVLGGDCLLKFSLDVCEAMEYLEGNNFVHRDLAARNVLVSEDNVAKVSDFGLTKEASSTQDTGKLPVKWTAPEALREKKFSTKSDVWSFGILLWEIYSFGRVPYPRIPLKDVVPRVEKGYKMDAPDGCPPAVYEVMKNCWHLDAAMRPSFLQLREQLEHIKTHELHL
Mast/stem cell growth factor receptor Kit (Homo sapiens), P10721 [D816V], sequence (P10721 whole entry D816V): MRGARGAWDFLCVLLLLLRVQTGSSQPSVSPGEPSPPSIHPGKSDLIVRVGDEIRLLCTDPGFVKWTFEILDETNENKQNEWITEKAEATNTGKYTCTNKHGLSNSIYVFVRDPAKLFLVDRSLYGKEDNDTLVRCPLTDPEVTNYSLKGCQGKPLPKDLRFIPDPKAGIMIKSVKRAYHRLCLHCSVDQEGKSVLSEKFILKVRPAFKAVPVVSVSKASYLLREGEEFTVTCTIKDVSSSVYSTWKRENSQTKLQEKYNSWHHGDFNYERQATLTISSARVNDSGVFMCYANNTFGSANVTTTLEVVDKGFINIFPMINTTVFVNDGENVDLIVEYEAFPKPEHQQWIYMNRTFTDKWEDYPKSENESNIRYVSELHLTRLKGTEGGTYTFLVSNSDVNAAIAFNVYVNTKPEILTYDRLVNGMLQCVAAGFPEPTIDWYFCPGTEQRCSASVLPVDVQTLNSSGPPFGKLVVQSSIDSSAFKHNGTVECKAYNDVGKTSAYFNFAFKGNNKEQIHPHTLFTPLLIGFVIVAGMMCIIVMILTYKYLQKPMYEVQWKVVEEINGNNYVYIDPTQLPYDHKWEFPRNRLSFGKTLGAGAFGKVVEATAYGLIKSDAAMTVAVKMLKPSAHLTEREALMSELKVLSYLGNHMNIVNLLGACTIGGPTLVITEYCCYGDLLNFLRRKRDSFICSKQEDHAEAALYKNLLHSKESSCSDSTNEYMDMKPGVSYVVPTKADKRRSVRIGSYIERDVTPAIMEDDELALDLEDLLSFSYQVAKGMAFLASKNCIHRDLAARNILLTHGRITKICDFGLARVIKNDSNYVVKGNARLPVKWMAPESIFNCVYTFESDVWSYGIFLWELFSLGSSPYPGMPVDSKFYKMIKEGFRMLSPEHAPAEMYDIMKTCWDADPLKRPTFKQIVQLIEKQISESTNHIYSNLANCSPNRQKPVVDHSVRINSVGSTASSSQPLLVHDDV
Tyrosine-protein kinase Fyn (Homo sapiens), sequence (P06241 2-537 limits assumed): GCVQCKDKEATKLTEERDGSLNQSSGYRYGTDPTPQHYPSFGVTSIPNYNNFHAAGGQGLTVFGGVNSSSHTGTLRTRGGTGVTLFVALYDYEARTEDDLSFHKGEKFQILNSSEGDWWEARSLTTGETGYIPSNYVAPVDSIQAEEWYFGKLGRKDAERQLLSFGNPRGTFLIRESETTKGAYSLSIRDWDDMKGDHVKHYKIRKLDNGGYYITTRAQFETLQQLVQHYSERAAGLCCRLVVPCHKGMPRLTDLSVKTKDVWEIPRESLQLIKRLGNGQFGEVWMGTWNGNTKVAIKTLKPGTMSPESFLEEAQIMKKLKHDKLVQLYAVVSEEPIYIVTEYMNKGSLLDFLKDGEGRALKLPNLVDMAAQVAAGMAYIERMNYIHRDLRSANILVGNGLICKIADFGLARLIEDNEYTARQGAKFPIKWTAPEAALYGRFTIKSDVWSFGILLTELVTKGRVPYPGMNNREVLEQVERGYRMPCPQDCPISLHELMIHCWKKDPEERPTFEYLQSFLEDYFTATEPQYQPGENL
5-hydroxytryptamine receptor 1D (Homo sapiens), sequence (P28221 whole entry): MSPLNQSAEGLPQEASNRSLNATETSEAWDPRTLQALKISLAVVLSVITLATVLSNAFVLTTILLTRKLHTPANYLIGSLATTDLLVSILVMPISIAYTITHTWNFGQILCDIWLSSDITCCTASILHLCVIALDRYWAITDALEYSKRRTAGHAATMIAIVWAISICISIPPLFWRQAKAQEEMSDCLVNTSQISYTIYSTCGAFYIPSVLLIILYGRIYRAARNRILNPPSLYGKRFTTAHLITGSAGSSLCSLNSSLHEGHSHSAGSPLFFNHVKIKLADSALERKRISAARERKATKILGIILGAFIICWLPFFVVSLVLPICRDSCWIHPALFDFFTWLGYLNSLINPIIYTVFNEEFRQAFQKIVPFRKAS

O=C(NC[C@@H]1[C@H]2CN(C(=O)OCc3cc(C(F)(F)F)cc(C(F)(F)F)c3)C[C@@H]12)c1ccc2[nH]nnc2c1 [BI 2545]
inactive: residual activity [1] 93% | residual activity [2] 100% | residual activity [3] 87% | residual activity [4] 96% | residual activity [5] 100% | residual activity [6] 84% | residual activity [7] 92% | residual activity [8] 96% | residual activity [9] 94% | residual activity [10] 82% | residual activity [11] 100% | residual activity [12] 83% | residual activity [13] 85% | residual activity [14] 84% | residual activity [15] 93% | residual activity [16] 100% | residual activity [17] 97% | residual activity [18] 83% | residual activity [19] 90% | residual activity [20] 90% | residual activity [21] 100% | residual activity [22] 100% | residual activity [23] 100% | residual activity [24] 99% | residual activity [25] 76% | residual activity [26] 83% | residual activity [27] 100% | residual activity [28] 100% | residual activity [29] 89% | residual activity [30] 100% | residual activity [31] 88% | residual activity [32] 91% | residual activity [33] 100% | residual activity [34] 96% | residual activity [35] 100% | inhibition [36] 43.2% | inhibition [37] 8.82% | inhibition [38] 19%

Cc1nccc(COC(=O)N2C[C@@H]3[C@@H](CNC(=O)c4ccc5[nH]nnc5c4)[C@@H]3C2)n1 [BI 3017]
inactive: residual activity [1] 95% | residual activity [2] 100% | residual activity [3] 88% | residual activity [4] 86% | residual activity [5] 100% | residual activity [6] 81% | residual activity [7] 100% | residual activity [8] 99% | residual activity [9] 90% | residual activity [10] 77% | residual activity [11] 100% | residual activity [12] 100% | residual activity [13] 100% | residual activity [14] 84% | residual activity [15] 100% | residual activity [16] 100% | residual activity [17] 100% | residual activity [18] 92% | residual activity [19] 91% | residual activity [20] 90% | residual activity [21] 87% | residual activity [22] 100% | residual activity [23] 90% | residual activity [24] 100% | residual activity [25] 89% | residual activity [26] 100% | residual activity [27] 94% | residual activity [28] 100% | residual activity [29] 86% | residual activity [30] 100% | residual activity [31] 100% | residual activity [32] 90% | residual activity [33] 100% | residual activity [34] 80% | residual activity [35] 97% | inhibition [36] 23% | inhibition [37] 16.4% | inhibition [38] 9.56%
